“And” between values parts separate entries of the source, which are not always exact repeats. Equal values may be shown once. “Also recorded” adds a separate entry of the source.
Tests used:
adult C57BL/6 mice = test: 30 day systemic treatment of non-irradiated mice (blood counts, BM HSC/progenitors, CFCs); type: in vivo, mouse
Description: Femurs and tibiae were collected from killed C57BL/6 or Ptprs^−/− mice and flushed with IMDM containing 10% FBS and 1% penicillin–streptomycin for BM cells. PB was collected through sub-mandibular puncture. Cells were filtered through a 40 μM strainer and then treated with ACK lysis buffer (Sigma Aldrich) before antibody staining for flow cytometry. For KSL and CD150^+CD48^−KSL cell analysis, BM cells were stained with allophycocyanin (APC)-and Cy7-conjugated anti-mouse Sca1 (BD Biosciences, #560654, 1:100), phycoerythrin (PE)-conjugated anti-mouse c-kit (BD Biosciences, #553355, 1:100), V450 lineage cocktail (BD Biosciences, 561301, 1:10), Alexa Fluor 488-conjugated anti-mouse CD48 (BioLegend, #103414, 1:100), and Alexa Fluor 647-conjugated anti-mouse CD150 (Biolegend, #115918, 1:100) antibodies. For MEP, CMP, GMP, and CLP cell analysis, BM cells were stained with APC-Cy7-conjugated anti-mouse Sca1 (BD Biosciences, #560654, 1:100), PE-conjugated anti-mouse ckit (BD Biosciences, #553355, 1:100), V450 lineage cocktail (BD Biosciences, #561301; 1:10), Alexa Fluor 488-conjugated anti-mouse CD127 (BD Biosciences, #561533, 1:100), Alexa Fluor 647-conjugated anti-mouse CD34 (BD Biosciences, #560230; 1:100), and BV605-conjugated anti-mouse CD16/32 antibodies (BD Biosciences, #563006; 1:100). For donor engraftment analysis in transplanted mice, PB or BM cells were stained with BV605-conjugated anti-mouse CD45.2 (BioLegend, #109841, 1:100), fluorescein isothiocyanate (FITC)-conjugated anti-mouse CD45.1 (BD Biosciences, #553775, 1:100), PE-conjugated anti-mouse Mac-1 (BD Biosciences, #557397, 1:100) and anti-mouse Gr1 (BD Biosciences, #553128, 1:100), V450-conjugated anti-mouse CD3 (BD Biosciences, #561389, 1:100), and APC-Cy7-conjugated anti-mouse B220 (BD Biosciences, 552094, 1:100) antibodies.
(§1) CFC assays (colony-forming unit-granulocyte monocyte), burst-forming unit-erythroid, and CFU-GEMM were performed using MethoCult GF M3434 (Stemcell Technologies)[6]. For all in vitro assays, BM CD34^−KSL cells, KSL cells, and Lin^− cells were cultured in TSF media (IMDM, 10% FBS, 1% pen-strep, 20 ng/mL recombinant mouse TPO, 125 ng/mL recombinant mouse SCF, 50 ng/mL recombinant mouse Flt3 ligand). Recombinant mouse SCF, Flt3 ligand, and TPO were purchased from R&D Systems. For competitive repopulation assays, BM cells were isolated from donor 10–12-week-old female CD45.2^+ mice. Recipient 10-week-old female CD45.1^+ B6.SJL mice were irradiated with 950 cGy TBI using a Cs137 irradiator and donor BM cells were administered via tail vein injection along with a competing dose of 1 × 10^5 non-irradiated host BM cells. Multilineage donor hematopoietic cell engraftment was measured in the PB by flow cytometry.

human BM CD34+ cells = test: CFU-GEMM from 300 cGy-irradiated human BM CD34+ cells; type: cell-based
Description: as §1
Human BM mononuclear cells were purchased from AllCells. Cryopreserved human BM cells were recovered in IMDM + 10% FBS + 1% penicillin–streptomycin and then positively selected for CD34^+ stem/progenitor cells by using CD34 MicroBead Kit (Miltenyi Biotec, #130-046-702, 1:5). […]

[1] = test system: BM KSL cells; donor CD45.2+ cells; test: In vivo BrdU incorporation analysis; design: species or system mouse
Description: For BrdU incorporation analysis in BM KSL cells in vivo, adult C57Bl/6 mice were irradiated with 750 cGy TBI and treated with 5 mg/kg DJ001 or vehicle daily from day + 1 to day + 10. On day + 10, mice were injected intraperitoneally with 2 mg BrdU (BD Biosciences). Sixteen hours later, BM cells were collected and stained with anti-BrdU FITC (BD Biosciences, #557891, 1:50), APC-Cy7-conjugated anti-Sca1 (BD Biosciences, #560654, 1:100), PE-conjugated anti-c-kit (BD Biosciences, #553355, 1:100), and V450 lineage cocktail (BD Biosciences, #561301, 1:10). We repeated this BrdU incorporation analysis on donor CD45.2^+ cells at day + 7 and day + 21 following competitive transplantation into recipient CD45.1^+ mice.

[2] = 30 day treatment of non-irradiated mice, individual mice
[3] = 30 day treatment of non-irradiated mice, replicates

For O=C(/C=C\Nc1cccc([N+](=O)[O-])c1)c1ccccc1 [DJ001, (Z)-3-((3-nitrophenyl)amino)-1-phenylprop-2-en-1-one], the “Supplementary Figure 3c (center left panel): blood counts” value (adult C57BL/6 mice; [2]) was 0.82 and 1.16 and 1.29 and 0.87 and 1.1 and 1.4 and 0.98, the “Supplementary Figure 3c (center right panel): blood counts” value (adult C57BL/6 mice; [2]) was 4.18 and 4.99 and 3.87 and 3.78 and 3.15 and 4.96 and 3.86 and the “Supplementary Figure 3c (left panel): blood counts” value (adult C57BL/6 mice; [2]) was 5.14 and 6.28 and 5.54 and 5.44 and 4.5 and 5.46 and 7.08. The “Supplementary Figure 3c (right panel): blood counts” value (adult C57BL/6 mice; [2]) was 982 and 1048 and 1026 and 1004 and 1184 and 1209 and 1110, the “Supplementary Figure 3d (center panel): BM HSC/progenitors” value (adult C57BL/6 mice; [2]) was 3.5181 and 6.1488 and 9.9568 and 8.316 and 4.0147 and 7.046 and 6.2794 and the “Supplementary Figure 3d (left panel): BM HSC/progenitors” value (adult C57BL/6 mice; [2]) was 1.912 and 2.52 and 3.92 and 3.024 and 2.624 and 2.168 and 3.376. The “Supplementary Figure 3d (right panel): BM HSC/progenitors” value (adult C57BL/6 mice; [2]) was 3.375 and 1.086 and 2.798 and 5.06 and 3.054 and 1.789 and 4.039, the “Supplementary Figure 3e: BFU-E” value (adult C57BL/6 mice; [3]) was 0 and the “Supplementary Figure 3e: CFU-GEMM” value (adult C57BL/6 mice; [3]) was 0 (3×) and 1 (2×) and 2. The “Supplementary Figure 3e: CFU-GM” value (adult C57BL/6 mice; [3]) was 10 and 7 and 8 and 6 (2×) and 9, the “complete blood counts, BM HSC or progenitor cell content, BM CFCs vs vehicle” value (adult C57BL/6 mice; non-irradiated mice, 5 mg/kg subcutaneously every other day for 30 days, 5 mg/kg) was “no significant changes; also recorded: caused no expansion of HSCs, progenitors, or mature blood counts” and the “Figure 5b: CFU-GEMM” value (human BM CD34+ cells; 300 cGy-irradiated human BM CD34+ cells, replicates) was 8 and 13 and 15 and 22 and 19 and 14. The “recovery of multipotent CFU-GEMMs” value (human BM CD34+ cells; 72 h following 300 cGy irradiation of human BM CD34+ cells) was “increased the recovery of multipotent CFU-GEMMs”, the BrdU incorporation ([1]; Supplementary Figure 7i) was 36.54 and 44.684 and 44.262 and 33.456 and the “BrdU incorporation in donor CD45.2+ cells, DJ001 vs vehicle group” value ([1]; day +7 and day +21 following competitive transplantation) was “no difference in BrdU incorporation”. The “BrdU incorporation in BM KSL cells vs vehicle” value ([1]; day +10 following 750 cGy TBI) was “increased bromodeoxyuridine (BrdU) incorporation”.

Source: paper PMC6694155, “PTPσ inhibitors promote hematopoietic stem cell regeneration” (Nature Communications, 2019)
